Measured values as given in patent publication US11053235B2, “Substituted 1,4-dihydropyrimidines for the treatment of HBV infection or HBV-induced diseases” (Janssen Sciences Ireland Unlimited Company, priority 2018, dated 2021).

Assays:
[1] = Cytotoxicity determination in HepG2.2.15 cells (CCK-8); format: cell-based; details: human, 6 days treatment, CCK-8, highest concentration 100 uM
Source text: (§1) Example 2: Anti-Viral Assay in HepG2.2.15 Cells
(§2) 1.1. Cell Line • HepG2.2.15 (the HepG2.2.15 cell line can be produced by transfection of the HepG2 cell line as described in Sells, Chen, and Acs 1987 (Proc. Natl. Acad. Sci. USA 84:1005-1009), and the HepG2 cell line is available from ATCC® under number HB-8065™). Reagents • DMEM/F12 (INVITROGEN-11330032) • FBS (GIBCO-10099-141) • Dimethyl sulfoxide(DMSO) (SIGMA-D2650) • Penicillin-streptomycin solution (HYCLONE-SV30010) • NEAA (INVITROGEN-1114050) • L-Glutamine (INVITROGEN-25030081) • Geneticin Selective Antibiotic (G418, 500 mg/ml) (INVITROGEN-10131027) • Trypsinase digestion solution (INVITROGEN-25300062) • CCK8 (BIOLOTE-35004) • QIAamp 96 DNA Blood Kit (12) (QIAGEN-51162) • FastStart Universal Probe Mast Mix (ROCHE-04914058001)
(§3) 2.1. HBV Inhibitory Activity and Cytotoxicity Determination
(§4) Seed the cell HepG2.2.15 cells into 96-well plate in 2% FBS culture medium at the density of 40,000 cells/well and 5,000 cells/well for HBV inhibitory activity and cytotoxicity determination, respectively. After seeding, incubate the cell plates at 37° C., 5% CO2 overnight. The next day, medium containing compounds is added to the cell to treat the cells for 6 days with medium refreshed once in the middle of the treatment. 8 dose points with 3 folds dilution of each compound were adopted and the highest concentration of the compounds is 10 uM and 100 uM for HBV inhibitory activity and cytotoxicity determination, respectively.
After 6 days of compounds treatment, add 20 μl CCK-8 reagents to each well of cytotoxicity assay plates, incubate the plate at 37° C., 5% CO2 for 2.5 h and measure the absorbance at 450 nm wavelength, at the same time read the absorbance at 630 nm wavelength as reference.
(§5) EC50 and CC50 values are calculated by the GRAPHPAD PRISM software.

[2] = tested on: HBV; experiment: Anti-viral assay in HepG2.2.15 cells: HBV inhibitory activity (HBV DNA in culture medium by q-PCR); format: cell-based; details: Hepatitis B virus, HepG2.2.15, 144 h, HepG2.2.15 cells, 6 days treatment, HBV DNA in culture medium by q-PCR, highest concentration 10 uM; read-out: EC50
Source text: as §1, §2, §3, §4
The HBV DAN change in the cell culture medium induced by the compounds is measured by q-PCR method. Briefly, the HBV DNA in the culture medium is extracted using QIAamp 96 DNA Blood Kit according to the manual and then quantified by q-PCR using the primers and probe in the table below.
as §5

Compound | CC50 at 6 days [1] [nM] | EC50 [2] [nM]
CCOC(=O)C1=C([C@H]2CC[C@H](c3cnn(CC(C)(C)C(=O)O)c3)CC2)NC(c2nccs2)=NC1c1ccc(F)c(F)c1Cl (single isomer, unassigned) [Compound I-37-C, (trans)-3-(4-(4-(6-(2-Chloro-3,4-difluorophenyl)-5-(ethoxycarbonyl)-2-(thiazol-2-yl)-3,6-dihydropyrimidin-4-yl)cyclohexyl)-1H-pyrazol-1-yl)-2,2-dimethylpropanoic Acid] | 2220 | 8.3
CCOC(=O)C1=C([C@H]2CC[C@H](n3cc(C(=O)O)cn3)CC2)NC(c2nccs2)=NC1c1ccc(F)c(F)c1Cl (single isomer, unassigned) [Compound I-38-B, (trans)-1-(4-(6-(2-Chloro-3,4-difluorophenyl)-5-(ethoxycarbonyl)-2-(thiazol-2-yl)-3,6-dihydropyrimidin-4-yl)cyclohexyl)-1H-pyrazole-4-carboxylic Acid] | 11300 | < 4.6
CCOC(=O)C1=C([C@H]2CC[C@@H](n3nccc3C(=O)O)CC2)NC(c2nccs2)=NC1c1ccc(F)c(F)c1Cl (single isomer, unassigned) [Compound I-39-B, (cis)-1-(4-(6-(2-Chloro-3,4-difluorophenyl)-5-(ethoxycarbonyl)-2-(thiazol-2-yl)-3,6-dihydropyrimidin-4-yl)cyclohexyl)-1H-pyrazole-5-carboxylic Acid] | 7590 | 82
CCOC(=O)C1=C([C@H]2CC[C@H](n3nccc3C(=O)O)CC2)NC(c2nccs2)=NC1c1ccc(F)c(F)c1Cl (single isomer, unassigned) [Compound I-39-C, (trans)-1-(4-(6-(2-Chloro-3,4-difluorophenyl)-5-(ethoxycarbonyl)-2-(thiazol-2-yl)-3,6-dihydropyrimidin-4-yl)cyclohexyl)-1H-pyrazole-5-carboxylic Acid] | 7750 | 110
CCOC(=O)C1=C([C@H]2CC[C@H](c3ncc(C(=O)O)cn3)CC2)NC(c2nccs2)=NC1c1ccc(F)c(F)c1Cl (single isomer, unassigned) [Compound I-40-A, (trans)-2-(4-(6-(2-Chloro-3,4-difluorophenyl)-5-(ethoxycarbonyl)-2-(thiazol-2-yl)-3,6-dihydropyrimidin-4-yl)cyclohexyl)pyrimidine-5-carboxylic Acid] | 4430 | < 4.6
CCOC(=O)C1=C([C@H]2CC[C@H](c3nc(C(=O)O)cs3)CC2)NC(c2nccs2)=NC1c1ccc(F)c(F)c1Cl (single isomer, unassigned) [Compound I-41-B, (trans)-2-(4-(6-(2-Chloro-3,4-difluorophenyl)-5-(ethoxycarbonyl)-2-(thiazol-2-yl)-3,6-dihydropyrimidin-4-yl)cyclohexyl)thiazole-4-carboxylic Acid] | 1020 | 17
CCOC(=O)C1=C([C@H]2CC[C@H](c3cc(C(=O)O)no3)CC2)NC(c2nccs2)=NC1c1ccc(F)c(F)c1Cl (single isomer, unassigned) [Compound I-42-B, (trans)-5-(4-(6-(2-Chloro-3,4-difluorophenyl)-5-(ethoxycarbonyl)-2-(thiazol-2-yl)-3,6-dihydropyrimidin-4-yl)cyclohexyl)isoxazole-3-carboxylic Acid] | 10800 | 83
CCOC(=O)C1=C([C@H]2CC[C@H](c3cc(C(=O)O)on3)CC2)NC(c2nccs2)=NC1c1ccc(F)c(F)c1Cl (single isomer, unassigned) [Compound I-43-B] | 13700 | 29
CCOC(=O)C1=C([C@H]2CC[C@H](c3ccc(C(=O)O)cc3)CC2)NC(c2nccs2)=NC1c1ccc(F)c(F)c1Cl (single isomer, unassigned) [Compound I-44-A, (trans)-4-(4-(6-(2-Chloro-3,4-difluorophenyl)-5-(ethoxycarbonyl)-2-(thiazol-2-yl)-3,6-dihydropyrimidin-4-yl)cyclohexyl)benzoic Acid] | 1810 | 8.5
COC(=O)C1=C([C@H]2CC[C@H](c3ncc(C4(C(=O)O)CC4)cn3)CC2)NC(c2nccs2)=NC1c1ccc(F)c(F)c1Cl (single isomer, unassigned) [Compound I-46-C, 1-(2-((trans)-4-(6-(2-chloro-3,4-difluorophenyl)-5-(methoxycarbonyl)-2-(thiazol-2-yl)-3,6-dihydropyrimidin-4-yl)cyclohexyl)pyrimidin-5-yl)cyclopropanecarboxylic Acid] | 16100 | 15
COC(=O)C1=C([C@H]2CC[C@H](c3ncc(C)c(C(=O)O)n3)CC2)NC(c2nccs2)=NC1c1ccc(F)c(F)c1Br (single isomer, unassigned) [Compound I-47-D, 2-((Trans)-4-(6-(2-bromo-3,4-difluorophenyl)-5-(methoxycarbonyl)-2-(thiazol-2-yl)-3,6-dihydropyrimidin-4-yl)cyclohexyl)-5-methylpyrimidine-4-carboxylic Acid] | 19300 | 5.9
COC(=O)C1=C([C@H]2CC[C@H](c3nc(CC(=O)O)c(C)o3)CC2)NC(c2nccs2)=NC1c1ccc(F)cc1Cl (single isomer, unassigned) [Compound I-48-B, (trans)-2-(2-(4-(6-(2-Chloro-4-fluorophenyl)-5-(methoxycarbonyl)-2-(thiazol-2-yl)-3,6-dihydropyrimidin-4-yl)cyclohexyl)-5-methyloxazol-4-yl)acetic Acid] | 23000 | 22
COC(=O)C1=C([C@H]2CC[C@H](c3ncc(CC(=O)O)cn3)CC2)NC(c2nccs2)=NC1c1ccc(F)c(F)c1Cl (single isomer, unassigned) [Compound I-49-A, 2-(2-((trans)-4-(6-(2-chloro-3,4-difluorophenyl)-5-(methoxycarbonyl)-2-(thiazol-2-yl)-3,6-dihydropyrimidin-4-yl)cyclohexyl)pyrimidin-5-yl)acetic Acid] | 24700 | 11
COC(=O)C1=C([C@H]2CC[C@H](c3ncc(CC(=O)O)cn3)CC2)NC(c2nccs2)=NC1c1ccc(F)cc1Cl (single isomer, unassigned) [Compound I-50-A, 2-(2-((trans)-4-(6-(2-chloro-4-fluorophenyl)-5-(methoxycarbonyl)-2-(thiazol-2-yl)-3,6-dihydropyrimidin-4-yl)cyclohexyl)pyrimidin-5-yl)acetic Acid] | 16400 | 11
COC(=O)C1=C(C2CCN(c3ncc(CC(=O)O)cn3)CC2)NC(c2nccs2)=NC1c1ccc(F)c(F)c1C (single isomer, unassigned) [II-1-B, 2-(2-(4-(6-(3,4-Difluoro-2-methylphenyl)-5-(methoxycarbonyl)-2-(thiazol-2-yl)-3,6-dihydropyrimidin-4-yl)piperidin-1-yl)pyrimidin-5-yl)acetic Acid] | 4970 | < 4.6
CCOC(=O)C1=C(C2CCN(c3ncc(C)c(C(=O)O)n3)CC2)NC(c2nccs2)=NC1c1cccc(F)c1C (single isomer, unassigned) [II-2-B, 2-(4-(5-(Ethoxycarbonyl)-6-(3-fluoro-2-methylphenyl)-2-(thiazol-2-yl)-3,6-dihydropyrimidin-4-yl)piperidin-1-yl)-5-methylpyrimidine-4-carboxylic Acid] | 12400 | 8.4
CCOC(=O)C1=C(C2CCN(c3ncc(CC(=O)O)cn3)CC2)NC(c2nccs2)=NC1c1cccc(F)c1C (single isomer, unassigned) [II-3-B, 2-(2-(4-(5-(ethoxycarbonyl)-6-(3-fluoro-2-methylphenyl)-2-(thiazol-2-yl)-3,6-dihydropyrimidin-4-yl)piperidin-1-yl)pyrimidin-5-yl)acetic Acid] | 4220 | < 4.6
CCOC(=O)C1=C(C2CCN(c3ncc(C)c(C(=O)O)n3)CC2)NC(c2nccs2)=NC1c1ccc(F)cc1C (single isomer, unassigned) [II-4-B, 2-(4-(5-(Ethoxycarbonyl)-6-(4-fluoro-2-methylphenyl)-2-(thiazol-2-yl)-3,6-dihydropyrimidin-4-yl)piperidin-1-yl)-5-methylpyrimidine-4-carboxylic Acid] | 16300 | 19
